# According to BindingDB's records for doi:10.1111/cbdd.12189 (Tianjin Medical University, 2013):
# How the values were obtained:
# [1] = molecular target: T1, Tyrosine-protein phosphatase non-receptor type 1 (Homo sapiens, UniProt P18031); assay: PTP activity assay; conditions: pH 6; 37 °C
# T1 sequence (P18031 whole entry): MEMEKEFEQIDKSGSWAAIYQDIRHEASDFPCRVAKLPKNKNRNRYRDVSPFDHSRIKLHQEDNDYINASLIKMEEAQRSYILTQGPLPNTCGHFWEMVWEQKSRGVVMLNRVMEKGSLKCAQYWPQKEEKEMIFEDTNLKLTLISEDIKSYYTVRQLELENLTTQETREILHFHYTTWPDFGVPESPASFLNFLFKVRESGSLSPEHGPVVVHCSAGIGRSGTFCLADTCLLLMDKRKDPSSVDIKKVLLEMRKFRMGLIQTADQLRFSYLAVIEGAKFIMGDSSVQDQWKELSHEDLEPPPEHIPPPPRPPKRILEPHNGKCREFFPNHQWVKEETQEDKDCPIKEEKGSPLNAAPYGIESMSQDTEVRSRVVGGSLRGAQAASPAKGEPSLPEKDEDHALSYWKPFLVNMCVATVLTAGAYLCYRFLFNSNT
# Protocol: (§1) The enzyme activity was measured using p-nitrophenyl phosphate (pNPP) as substrate in a 96-well plate and by detecting the absorbance at 405 nm for the amount of produced p-nitrophenol. Purified human recombinant PTP1B or TCPTP (0.05 µg) in 50 µL buffer containing 50 mM citrate (pH 6.0), 0.1 M NaCl, 1 mM EDTA, and 1 mM DTT and test compounds were added to each well. Each mixture was pre-incubated for 15 min at room temperature, followed by the addition of 50 µL of reaction buffer containing 2 mM pNPP and incubated at 37°C for 30 min.
# [2] = molecular target: T2, Tyrosine-protein phosphatase non-receptor type 2 (Homo sapiens, UniProt P17706); assay: PTP activity assay; conditions: pH 6; 37 °C
# T2 sequence (P17706 whole entry): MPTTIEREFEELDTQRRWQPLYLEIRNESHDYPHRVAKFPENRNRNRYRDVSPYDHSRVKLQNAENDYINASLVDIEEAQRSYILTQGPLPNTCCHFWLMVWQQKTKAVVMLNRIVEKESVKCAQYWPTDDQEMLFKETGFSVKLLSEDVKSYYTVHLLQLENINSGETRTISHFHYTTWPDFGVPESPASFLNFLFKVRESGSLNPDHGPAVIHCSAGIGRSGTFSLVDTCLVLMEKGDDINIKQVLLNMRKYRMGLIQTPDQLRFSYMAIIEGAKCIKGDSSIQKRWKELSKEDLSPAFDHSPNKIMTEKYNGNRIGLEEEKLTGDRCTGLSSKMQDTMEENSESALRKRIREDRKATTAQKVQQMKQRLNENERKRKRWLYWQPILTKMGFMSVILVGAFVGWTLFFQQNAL
# Protocol: as §1
IC50 [1] [µM],IC50 [2] [µM],Compound
4.1,18.7,"O=C1NC(=O)/C(=C/c2ccccc2OCc2ccc(Cl)cc2Cl)N1 [(5Z)‐5‐({2‐[(2,4‐ dichlorophenyl)methoxy]phenyl}methylidene)imidazolidine‐ 2,4‐dione (comp#c)]"
37.4,36.8,"O=C1NC(=O)/C(=C/c2ccccc2OCc2cccc(Cl)c2)N1 [(5Z)‐5‐({2‐[(3‐ chlorophenyl)methoxy]phenyl}methylidene)imidazolidine‐ 2,4‐dione (comp#a)]"
40.8,137,"O=C1NC(=O)/C(=C/c2cccc(OCc3ccc(Cl)cc3)c2)N1 [(5Z)‐5‐({3‐[(4‐ chlorophenyl)methoxy]phenyl}methylidene)imidazolidine‐ 2,4‐dione (comp#g)]"
3.4,31.4,"COc1ccc(COc2ccc(/C=C3\NC(=O)NC3=O)cc2)cc1 [(5Z)‐5‐({4‐[(4‐ methoxyphenyl)methoxy]phenyl}methylidene)imidazolidine‐ 2,4‐dione (comp#l)]"
4.6,35.9,"O=C1NC(=O)/C(=C/c2ccccc2OCc2ccc(Cl)cc2)N1 [(5Z)‐5‐({2‐[(4‐ chlorophenyl)methoxy]phenyl}methylidene)imidazolidine‐ 2,4‐dione (comp#b)]"
11.4,44.1,"O=C1NC(=O)/C(=C/c2cccc(OCCc3ccccc3)c2)N1 [(5Z)‐5‐{[3‐(2‐ phenylethoxy)phenyl]methylidene}imidazolidine‐2,4‐ dione (comp#e)]"
41.9,22.3,"O=C1NC(=O)/C(=C/c2cccc(OCCCc3ccccc3)c2)N1 [(5Z)‐5‐{[3‐(3‐ phenylpropoxy)phenyl]methylidene}imidazolidine‐2,4‐ dione (comp#f)]"
2.8,33.6,"O=C1NC(=O)/C(=C/c2cccc(OCc3ccc(Cl)c(Cl)c3)c2)N1 [(5Z)‐5‐({3‐[(3,4‐ dichlorophenyl)methoxy]phenyl}methylidene)imidazolidine‐ 2,4‐dione (comp#i)]"
–,33.9,"O=C1NC(=O)/C(=C/c2ccc(OCc3ccc(Cl)c(Cl)c3)cc2)N1 [(5Z)‐5‐({4‐[(3,4‐ dichlorophenyl)methoxy]phenyl}methylidene)imidazolidine‐ 2,4‐dione (comp#k)]"
–,11.6,"O=C1NC(=O)/C(=C/c2ccc(OCc3ccc(Cl)cc3Cl)cc2)N1 [(5Z)‐5‐({4‐[(2,4‐ dichlorophenyl)methoxy]phenyl}methylidene)imidazolidine‐ 2,4‐dione (comp#j)]"
4.1,> 138,"O=C1NC(=O)/C(=C/c2cccc(OCc3ccc(Cl)cc3Cl)c2)N1 [(5Z)‐5‐({3‐[(2,4‐ dichlorophenyl)methoxy]phenyl}methylidene)imidazolidine‐ 2,4‐dione (comp#h)]"
> 170,> 170,"O=C1NC(=O)/C(=C/c2cccc(OCc3ccccc3)c2)N1 [(5Z)‐5‐{[3‐ (benzyloxy)phenyl]methylidene}imidazolidine‐2,4‐ dione (comp#d)]"
